Target: T1, human SCD5 (Homo sapiens, UniProt Q86SK9)
T1 construct: host or cells: S. cerevisiae ole1Δ strain (W303 pdr1Δ pdr3Δ background), pRS316 plasmid, TDH3 promoter
T1 sequence (Q86SK9 1-330): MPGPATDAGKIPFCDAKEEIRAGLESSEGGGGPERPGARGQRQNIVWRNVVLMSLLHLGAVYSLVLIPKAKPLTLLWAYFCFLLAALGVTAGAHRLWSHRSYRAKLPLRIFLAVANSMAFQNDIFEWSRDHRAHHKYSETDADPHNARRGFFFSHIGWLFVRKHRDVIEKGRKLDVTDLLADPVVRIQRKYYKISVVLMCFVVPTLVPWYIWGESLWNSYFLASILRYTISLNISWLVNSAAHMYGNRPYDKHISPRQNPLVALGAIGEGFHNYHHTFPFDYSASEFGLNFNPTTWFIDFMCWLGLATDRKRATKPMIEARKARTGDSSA
Test: Growth of humanized yeast expressing human SCD5 as sole desaturase
Assay type: cell-based, Saccharomyces cerevisiae expressing Saccharomyces cerevisiae expressing Saccharomyces cerevisiae expressing Saccharomyces cerevisiae expressing Saccharomyces cerevisiae expressing human SCD5 SCD5 SCD5 SCD5 SCD5
Conditions: yeast growth
Excerpt: To generate yeast strains expressing SCD1 or SCD5 as the sole desaturase, the human SCD1 and SCD5 genes were cloned from cDNAs (Harvard PlasmID database Clone ID HsCD00340237 for SCD1 and HsCD00342695 for SCD5) into yeast plasmid pRS316 (ATCC 77145) between the yeast TDH3 promoter and the CYC1 terminator. The coding sequence of yeast OLE1 was also cloned into this plasmid). These clones were then transformed into the ole1Δ strain and plated on CSM-Ura media (CSM lacking uracil) with 2% glucose (w/v) and independent colonies were isolated and amplified.
All compound profiling experiments were performed using the same basic protocol. Different genetic backgrounds (e.g., gene deletions) or conditions (e.g., addition of oleic and palmitoleic acid) were replaced as indicated below.
Compound stocks (10 mM in 100% DMSO) were arrayed into 384 round well, v-bottom polypropylene plates and diluted according to indicated dilution factors. Compound administration was performed in two separate steps. First, 15 μL of CSM-Galactose (induces expression of toxic protein) was dispensed into clear 384 well assay plates using a MULTIDROP™ Combi reagent dispenser. The diluted compound stock plates were then applied to the assay plates using an automated workstation (Perkin Elmer JANUS™) outfitted with a 384 pin tool containing slotted pins that deliver 100 nL of compound. The cultures described above were then diluted to a 2× concentration (0.03 and 0.08 for alpha-synuclein and ApoE, final OD600 of 0.015 and 0.04) in CSM-Galactose. For wild-type and Ole1/SCD1/SCD5 plasmid-containing strains, the 2× cell density was 0.02. In all experiments, 15 μL culture was then dispensed into the pinned assay plate to achieve 30 μL of the 1×OD600 culture and a top drug concentration of […]. For 96-well assays (FIGS. 2A and 2B), compound dilutions in DMSO were generated in 96 well plates and 1 μL was manually pipetted into 96 well clear bottom assay plates.
For experiments using a plasmid-borne copy of Ole1, SCD1, or SCD5 (FIGS. 4B, 7, and 8), media lacking uracil (SX-Ura, where X is glucose, raffinose, or galactose), was used for all steps of the compound profiling protocol to ensure its maintenance throughout the assay.
After yeast delivery, assay plates were incubated under humidified conditions at 30° C. for 24 to 40 h. ApoE4 rescue experiments were stopped at 24 h, aSyn experiments at 40 h, Ole1 at 24 h, and SCD1/SCD5 at 40 h. The growth of yeast was monitored by reading the OD600 of each well using a microplate reader (Perkin Elmer EnVision™). For model rescue experiments, raw data were processed by background subtracting and calculating a fold-change relative to DMSO control [(EXP−0.035)/(DMSO−0.035)—where 0.035 is the OD600 contributed by an empty well containing 30 μL of media alone]. For growth inhibition of wild-type cells, raw data were processed by background subtracting and converting values to a percent of the nontreated condition for that strain [(EXP−0.035)/(DMSO−0.035)×100%].

## Cc1nnc(-c2ccc(N3CCC(Oc4cc(F)ccc4Cl)CC3)nn2)o1 [CAY10566]
  half-maximal inhibitory concentration (IC50), SCD5 humanized strain: low nanomolar
